Measured values published in PubChem BioAssay AID1963848 (Molecular Pharmacology Branch, DTP, NCI, 2024).
Values joined by “and” are separate entries in the source; they are usually repeats but may differ in a detail not shown here. Equal values may be shown once.

Tested on: 379773-124-R-J2-PDC spheroid viability
Test: Anticancer human tumor 379773-124-R-J2-PDC patient-derived endometrial carcinoma cell line growth inhibition [POLQ]
Settings: spheroids with HUVEC and MSC; for viability, T/C: stronger effect = lower value
Method in brief: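 PDC + HUVEC + MSC complex spheroids; POLQ inhibitors ± partner drugs; top conc. at/near clinical Cmax, else 10 microM (SN-38 1 microM), half-log dilutions; 37 degrees C, 5% CO2.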

[1] = curve of first compound, second compound 0.0316 µM
[2] = curve of first compound, second compound 0.1 µM
[3] = curve of first compound, second compound 0.316 µM
[4] = curve of first compound, second compound 1 µM
[5] = curve of first compound, second compound 3.16 µM
[6] = curve of first compound, second compound 10 µM
[7] = second compound 0.0316 µM, first compound 0.000316 µM
[8] = second compound 0.0316 µM, first compound 0.001 µM
[9] = second compound 0.0316 µM, first compound 0.00316 µM
[10] = second compound 0.0316 µM, first compound 0.01 µM
[11] = second compound 0.0316 µM, first compound 0.0316 µM
[12] = second compound 0.0316 µM, first compound 0.1 µM
[13] = second compound 0.1 µM, first compound 0.000316 µM
[14] = second compound 0.1 µM, first compound 0.001 µM
[15] = second compound 0.1 µM, first compound 0.00316 µM
[16] = second compound 0.1 µM, first compound 0.01 µM
[17] = second compound 0.1 µM, first compound 0.0316 µM
[18] = second compound 0.1 µM, first compound 0.1 µM
[19] = second compound 0.316 µM, first compound 0.000316 µM
[20] = second compound 0.316 µM, first compound 0.001 µM
[21] = second compound 0.316 µM, first compound 0.00316 µM
[22] = second compound 0.316 µM, first compound 0.01 µM
[23] = second compound 0.316 µM, first compound 0.0316 µM
[24] = second compound 0.316 µM, first compound 0.1 µM
[25] = second compound 1 µM, first compound 0.000316 µM
[26] = second compound 1 µM, first compound 0.001 µM
[27] = second compound 1 µM, first compound 0.00316 µM
[28] = second compound 1 µM, first compound 0.01 µM
[29] = second compound 1 µM, first compound 0.0316 µM
[30] = second compound 1 µM, first compound 0.1 µM
[31] = second compound 3.16 µM, first compound 0.000316 µM
[32] = second compound 3.16 µM, first compound 0.001 µM
[33] = second compound 3.16 µM, first compound 0.00316 µM
[34] = second compound 3.16 µM, first compound 0.01 µM
[35] = second compound 3.16 µM, first compound 0.0316 µM
[36] = second compound 3.16 µM, first compound 0.1 µM
[37] = second compound 10 µM, first compound 0.000316 µM
[38] = second compound 10 µM, first compound 0.001 µM
[39] = second compound 10 µM, first compound 0.00316 µM
[40] = second compound 10 µM, first compound 0.01 µM
[41] = second compound 10 µM, first compound 0.0316 µM
[42] = second compound 10 µM, first compound 0.1 µM
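Note: spheroids exposed to drugs for seven days before readout.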
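Throughout, for viability, T/C: percent viability relative to DMSO vehicle control taken as 100%.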

CC1COCCN1c1cc(C2(S(C)(=N)=O)CC2)nc(-c2ccnc3[nH]ccc23)n1 (stereo not drawn)
viability, T/C (compound 0.0316 µM): 78.3% and 87.6% and 81.5% | viability, T/C (compound 0.1 µM): 69.2% and 89.3% and 88.1% | viability, T/C (compound 0.316 µM): 71.7% and 86.7% and 72.9% | viability, T/C (compound 1 µM): 80.9% and 82.7% and 76.1% | viability, T/C (compound 3.16 µM): 34.5% and 44.9% and 28.5% | viability, T/C (compound 10 µM): 5.53% and 11.9% and 6.3% | IC50 (curve of compound): 2040 nM and 2710 nM and 1870 nM

CCc1cc2c(N3CCc4c(cc(Cn5ccnc5)cc4-c4cn(C)nc4C(F)(F)F)C3=O)cc(C)nc2c(OC)n1
viability, T/C (compound 0.0316 µM): 70.7% and 94% and 69.3% | viability, T/C (compound 0.1 µM): 73.2% and 69.1% and 70.4% | viability, T/C (compound 0.316 µM): 54.8% and 60.2% and 68.2% | viability, T/C (compound 1 µM): 55.9% and 57.2% and 61.2% | viability, T/C (compound 3.16 µM): 41.9% and 60.5% and 56.2% | viability, T/C (compound 10 µM): 40% and 47.3% and 48.9% | IC50 (curve of compound): 1260 nM and > 10000 nM and 8120 nM

CC[C@@]1(O)C(=O)OCc2c1cc1n(c2=O)Cc2cc3c(CN(C)C)c(O)ccc3nc2-1 + Cc1cccc(N(C)C(=O)C2C(O)CCN2c2nc(C)cc(C(F)(F)F)c2C#N)c1
IC50 [1]: 24.3 nM | IC50 [2]: 21.1 nM | IC50 [3]: 22.2 nM | IC50 [4]: 20.2 nM | IC50 [5]: 19.5 nM | IC50 [6]: 16.3 nM | viability, T/C [7]: 90.3% | viability, T/C [8]: 89.1% | viability, T/C [9]: 77.8% | viability, T/C [10]: 85.4% | viability, T/C [11]: 39.6% | viability, T/C [12]: 14.2% | viability, T/C [13]: 89.2% | viability, T/C [14]: 88.6% | viability, T/C [15]: 84.1% | viability, T/C [16]: 81.9% | viability, T/C [17]: 32.9% | viability, T/C [18]: 14% | viability, T/C [19]: 87.3% | viability, T/C [20]: 77.5% | viability, T/C [21]: 85.4% | viability, T/C [22]: 85.7% | viability, T/C [23]: 34.8% | viability, T/C [24]: 13.8% | viability, T/C [25]: 86.6% | viability, T/C [26]: 83.3% | viability, T/C [27]: 95.1% | viability, T/C [28]: 86.8% | viability, T/C [29]: 26.7% | viability, T/C [30]: 16% | viability, T/C [31]: 84.9% | viability, T/C [32]: 87.7% | viability, T/C [33]: 93.3% | viability, T/C [34]: 87% | viability, T/C [35]: 23% | viability, T/C [36]: 17.2% | viability, T/C [37]: 97.7% | viability, T/C [38]: 95% | viability, T/C [39]: 86.4% | viability, T/C [40]: 70.6% | viability, T/C [41]: 22.1% | viability, T/C [42]: 17.8%

Cn1ncnc1[C@H]1c2n[nH]c(=O)c3cc(F)cc(c23)N[C@@H]1c1ccc(F)cc1 + Nc1ccc(C#CCN(C(=O)Cc2ncc(C(F)(F)F)cc2C(F)(F)F)c2ccc(F)cc2)nn1
IC50 [1]: > 100 nM | IC50 [2]: > 100 nM | IC50 [3]: > 100 nM | IC50 [4]: > 100 nM | IC50 [5]: > 100 nM | IC50 [6]: > 100 nM | viability, T/C [7]: 103% | viability, T/C [8]: 86.2% | viability, T/C [9]: 94% | viability, T/C [10]: 85.8% | viability, T/C [11]: 68.6% | viability, T/C [12]: 53.7% | viability, T/C [13]: 89.8% | viability, T/C [14]: 94.6% | viability, T/C [15]: 99.3% | viability, T/C [16]: 91.9% | viability, T/C [17]: 79.1% | viability, T/C [18]: 55.8% | viability, T/C [19]: 100% | viability, T/C [20]: 102% | viability, T/C [21]: 93.6% | viability, T/C [22]: 86.3% | viability, T/C [23]: 72.5% | viability, T/C [24]: 64.2% | viability, T/C [25]: 97.7% | viability, T/C [26]: 90.1% | viability, T/C [27]: 99.1% | viability, T/C [28]: 86.6% | viability, T/C [29]: 80.4% | viability, T/C [30]: 55.1% | viability, T/C [31]: 113% | viability, T/C [32]: 91.5% | viability, T/C [33]: 98% | viability, T/C [34]: 102% | viability, T/C [35]: 67.5% | viability, T/C [36]: 58.2% | viability, T/C [37]: 87.7% | viability, T/C [38]: 90.6% | viability, T/C [39]: 86.3% | viability, T/C [40]: 84% | viability, T/C [41]: 78.8% | viability, T/C [42]: 56.5%
